Measured values reported in patent publication US9963444B2, “N-acylethanolamine hydrolyzing acid amidase (NAAA) inhibitors and their use thereof” (Northeastern University, priority 2014, dated 2018).
Read-outs that look alike come from different tables or passages of the source.

Tests used:
hNAAA [1] = target: T1, hNAAA (Homo sapiens (Human), UniProt Q02083); test: Inhibition kinetics of hNAAA (pre-incubation, Lineweaver-Burk plot, rapid dilution); assay type: biochemical
Protocol: The curves represent 15 minutes (filled circles, solid line) and 3 hours (open circles, dotted line) preincubation of hNAAA with NAAA inhibitor Example 4.
Example 4 inhibition kinetics of hNAAA (reversible or irreversible) was investigated using two methods: (1) Short (15 min) and long (180 min) pre-incubation of the inhibitor and enzyme prior to addition of N-(4-methyl coumarin) palmitamide (PAMCA) substrate (FIG. 1). Example's 4 inhibition concentration (IC50) was unaffected by longer pre-incubation of hNAAA with 4.

TNBS-induced colitis = TNBS-induced colitis in mice; assay type: in vivo
Protocol: NAAA inhibitor Example 4 (10 mg/kg bid, ip) *p<0.05 versus the TNBS untreated group.
PEA (10 mg/kg) and NAAA inhibitor Example 4 (AM; 10 mg/kg bid, ip). Mice were sacrificed on day 3 after administration. Effects of PEA and Example 4 on colon weight/length ratio, feces and MPO activity, mRNA expression of F4-80, CD11b, IL-12, TNF-α, MCP-1 and IL-1β expression measured by ELISA. #p<0.05; ##p<0.005; ###p<0.001 versus control mice; *p<0.05 versus the TNBS-untreated group.
TNBS-induced colitis is accompanied by increased pro-inflammatory cytokines expression in the liver and brain. Effects of PEA administration and NAAA inhibition with Example 4 (10 mg/kg b.i.d) on pro-inflammatory cytokines expression in (A) the liver and (B) brain. Results are expressed as mean±SEM with n=10mice/group. *p<0.05; **p<0.005; ***p<0.001 versus the TNBS untreated group.
Applicants also studied the compound of Example 4 in animal models of trinitrobenzene sulfonic acid (TNBS)- and dextran sodium sulfate (DSS)-induced colitis. This study aimed to investigate the effects of inhibiting NAAA responsible for PEA hydrolysis in colon inflammation in order to propose a potential therapeutic target for inflammatory bowel diseases. PEA is a known anti-inflammatory compound with analgesic, neuroprotective and anti-allergic properties, and was recently shown to exert PPARα dependent beneficial effects on colon inflammation [Laboratory Investigation; a Journal of Technical Methods and Pathology. 2004; 84: 1643-54].

hNAAA [2] = target: T1, hNAAA; test: Fluorescence-based NAAA inhibition assay with fluorogenic substrate PAMCA;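 also: compound preincubated 15 min at room temperature with hNAAA, then PAMCA added at 5 µM, reacted 120 min at 37 °C, AMC release read by fluorescence (ex 360, em 460 nm)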
Protocol: For three point concentration inhibition assays with hNAAA the following procedure is used. […] These samples are allowed to incubate for 15 min at room temperature and then 10 μL of a PAMCA stock solution in DMSO (final PAMCA concentration [5 μM]) was added. After 5 minutes of agitation on a shaking plate, the reaction is allowed to proceed at 37° C. for 120 minutes, with fluorescence readings taken every 10 minutes at a wavelength of 460 nm (using an excitation wavelength of 360 nm) on a Synergy HT Plate Reader using Gen5 software from Bio-Tek. The enzyme activity is calculated by converting the relative fluorescence units to AMC formed, using a standard curve of AMC. […] The assay procedure used is the same as the three point assay. […] After 5 minutes of agitation on a shaking plate, the reaction is allowed to proceed at 37° C. for 120 minutes Inhibition constants are calculated using pro Fit software (Quantum Soft, Uetikon am See, Switzerland) and a Levenberg-Marquardt algorithm.
For three point concentration inhibition assays with hNAAA the following procedure is used. […] These samples are allowed to incubate for 15 min at room temperature and then 10 μL of a PAMCA stock solution in DMSO (final PAMCA concentration [5 μM]) was added. After 5 minutes of agitation on a shaking plate, the reaction is allowed to proceed at 37° C. for 120 minutes, with fluorescence readings taken every 10 minutes at a wavelength of 460 nm (using an excitation wavelength of 360 nm) on a Synergy HT Plate Reader using Gen5 software from Bio-Tek. The enzyme activity is calculated by converting the relative fluorescence units to AMC formed, using a standard curve of AMC.
The assay procedure used is the same as the three point assay. […] After 5 minutes of agitation on a shaking plate, the reaction is allowed to proceed at 37° C. for 120 minutes. Inhibition constants are calculated using pro Fit software (Quantum Soft, Uetikon am See, Switzerland) and a Levenberg-Marquardt algorithm.

[3] = 10 mg/kg bid, ip, sacrificed day 3
[4] = read-out: NAAA Inhibition IC50 μM, purified hNAAA, PAMCA 5 μM, pH 4.5

T1 sequence (Q02083 29-125): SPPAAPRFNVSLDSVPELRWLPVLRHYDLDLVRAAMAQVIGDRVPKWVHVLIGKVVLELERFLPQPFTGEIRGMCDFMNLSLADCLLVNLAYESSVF
T1 sequence (Q02083 126-359): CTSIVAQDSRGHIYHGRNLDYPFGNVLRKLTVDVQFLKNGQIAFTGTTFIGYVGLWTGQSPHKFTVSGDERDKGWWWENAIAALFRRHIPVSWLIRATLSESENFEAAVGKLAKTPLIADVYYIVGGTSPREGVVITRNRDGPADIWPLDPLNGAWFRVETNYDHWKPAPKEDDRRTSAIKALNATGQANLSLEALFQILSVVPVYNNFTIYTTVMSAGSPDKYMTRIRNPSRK

| Compound | IC50 (hNAAA [2]) | IC50 (hNAAA [2]; [4]) | further results |
| --- | --- | --- | --- |
| S=C=NCCCCCCCCCCc1ccccc1 [Example 4, (10-Isothiocyanatodecyl)benzene] | 0.01 to 0.1 µM | – | Effect of longer pre-incubation on IC50 (hNAAA [1]; 15 min vs 180 min pre-incubation of inhibitor and enzyme before PAMCA): unaffected; Type of inhibition (Lineweaver-Burk plot) (hNAAA [1]; PAMCA at different concentrations, inhibitor 50 nM): competitive type inhibitor; Mode of inhibition (reversibility) (hNAAA [1]; conclusion from pre-incubation and rapid dilution): reversible and non-covalent inhibitor; Recovery of enzyme activity in rapid dilution experiment (hNAAA [1]; dilution to inhibitor concentration below IC50): fully recovered; Pro-inflammatory cytokines and chemokines expression in the liver and brain (TNBS-induced colitis; 10 mg/kg b.i.d, liver and brain): decreased; PEA levels in the colon (TNBS-induced colitis; 10 mg/kg bid, ip, TNBS-induced colitis): increased; Expression of pro-inflammatory cytokines and chemokines in colon (TNBS-induced colitis; 10 mg/kg bid, ip, colon): reduced; Leukocyte infiltration and activation (MPO activity, F4-80 and CD11b expression) (TNBS-induced colitis; 10 mg/kg bid, ip, colon): reduced; All measured parameters of colon inflammation (TNBS-induced colitis; [3]): decreased; Colon weight/length ratio (TNBS-induced colitis; [3]): reduced; Weight of the cecal content (TNBS-induced colitis; [3]): reduced |
| COc1cccc(-c2ccc(C(OC3CN(C#N)C3)c3ccccc3)cc2)c1 (stereo not drawn) [Example 100, 3-((3′-Methoxy-[1,1′-biphenyl]-4-yl)(phenyl)methoxy)azetidine-1-carbonitrile] | 0.01 to 0.1 µM | – | – |
| Cc1noc(C)c1-c1ccc(C(OC2CN(C#N)C2)c2ccccc2)cc1 (stereo not drawn) [Example 101, 3-((4-(3,5-Dimethylisoxazol-4-yl)phenyl)(phenyl)methoxy)azetidine-1-carbonitrile] | 0.01 to 0.1 µM | – | – |
| Cn1cc(-c2ccc(C(OC3CN(C#N)C3)c3ccccc3)cc2)cn1 (stereo not drawn) [Example 102, 3-((4-(1-Methyl-1H-pyrazol-4-yl)phenyl)(phenyl)methoxy)azetidine-1-carbonitrile] | 0.01 to 0.1 µM | – | – |
| CN(Cc1ccc(-c2ccccc2)cc1)C1CN(C#N)C1 [Example 103, 3-(([1,1′-Biphenyl]-4-ylmethyl)(methyl)amino)azetidine-1-carbonitrile] | 0.01 to 0.1 µM | – | – |
| N#CN1CC[C@H](OCc2ccc(-c3ccccc3)cc2)C1 [Example 104, (S)-3-([1,1′-Biphenyl]-4-ylmethoxy)pyrrolidine-1-carbonitrile] | 0.11 to 1 µM | – | – |
| N#CN1CC[C@@H](OCc2ccc(-c3ccccc3)cc2)C1 [Example 105, (R)-3-([1,1′-biphenyl]-4-ylmethoxy)pyrrolidine-1-carbonitrile] | 0.01 to 0.1 µM | – | – |
| N#CN1CCC(Oc2ccc(Br)cc2)CC1 [Example 106, 4-(4-Bromophenoxy)piperidine-1-carbonitrile] | – | > 1 µM | – |
| N#C[C@H]1C[C@H](OCc2ccc(-c3ccccc3)cc2)C1 [Example 107, (1R,3R)-3-([1,1′-Biphenyl]-4-ylmethoxy)cyclobutane-1-carbonitrile] | – | > 1 µM | – |
| N#C[C@H]1C[C@@H](OCc2ccc(-c3ccccc3)cc2)C1 [Example 108, (1S,3S)-3-([1,1′-biphenyl]-4-ylmethoxy)cyclobutane-1-carbonitrile] | – | > 1 µM | – |
| COc1cccc(-c2ccc(COC3CN(CC#N)C3)cc2)c1 [Example 109, 2-(3-((3′-Methoxy-[1,1′-biphenyl]-4-yl)methoxy)azetidin-1-yl)acetonitrile] | – | > 1 µM | – |
| N#Cc1ccc(OCc2ccc(Oc3ccccc3)cc2Br)cn1 [Example 110, 5-((2-Bromo-4-phenoxybenzyl)oxy)picolinonitrile] | – | > 1 µM | – |
| N#Cc1ccc(OCc2ccc(-c3ccccc3)cc2)cn1 [Example 111, 5-([1,1′-Biphenyl]-4-ylmethoxy)picolinonitrile] | – | > 1 µM | – |
| N#Cc1ncc(OCc2ccc(-c3ccccc3)cc2)cc1F [Example 112, 5-([1,1′-Biphenyl]-4-ylmethoxy)-3-fluoropicolinonitrile] | – | > 1 µM | – |
| N#Cc1ncc(F)cc1OCc1ccc(-c2ccccc2)cc1 [Example 113, 3-([1,1′-Biphenyl]-4-ylmethoxy)-5-fluoropicolinonitrile] | – | > 1 µM | – |
| N#Cc1cccc(C(=O)OCCCCCc2ccccc2)n1 [Example 114, 5-phenylpentyl 6-cyanopicolinate] | – | > 1 µM | – |
| N#Cc1ncc(OCCCCCCc2ccccc2)cn1 [Example 115, 5-((6-phenylhexyl)oxy)pyrimidine-2-carbonitrile] | 0.11 to 1 µM | – | – |
| N#Cc1ncc(OCCCCCc2ccccc2)cn1 [Example 116, 5-((5-phenylpentyl)oxy)pyrimidine-2-carbonitrile] | – | > 1 µM | – |
| N#Cc1ncc(OCCOCCOCc2ccccc2)cn1 [Example 117, 5-(2-(2-(benzyloxy)ethoxy)ethoxy)pyrimidine-2-carbonitrile] | – | > 1 µM | – |
